Reference: patent publication US10392348B2, “2-oxo-3,4-dihydroquinoline compounds as plant growth regulators” (Syngenta Participations AG, priority 2015, dated 2019)
Read-outs that look alike come from different tables or passages of the source.

What was measured:
[1] = test system: soybean plants (variety S20-G7); test: Reduced plant water use in soybean (foliar spray, repeated weighing of pots); format: in vivo; conditions: vs negative control; for change in vivo at 500 µM / change in vivo at 31.25 µM / change in vivo at 125 µM: Glycine max, foliar; for % WU 0 DAA AM*: 0 DAA a.m.
Method in brief: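 Daytime water use was tracked by weighing pots of 12-day-old soybean after foliar spray of compound formulated as EC plus EXTRAVON 1 g/20 L. Cumulative total (0-2.5 DAA) sums a.m. and p.m. readings; values baseline-adjusted by covariance analysis against formulation-only negative control.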

[2] = 0 h, Table B1, sprayed at 500 μM, 0 DAA a.m. (10:30-12:50), read-out: % WU 0 DAA AM
[3] = 24 h, Table B1, sprayed at 500 μM, 1 DAA a.m. (7:30-12:50), read-out: % WU 1DAA AM
[4] = 24 h, Table B1, sprayed at 500 μM, 1 DAA p.m. (14:00-19:50), read-out: % WU 1DAA PM
[5] = 48 h, Table B1, sprayed at 500 μM, 2 DAA a.m. (07:30-12:50), read-out: % WU 2 DAA AM
[6] = 48 h, Table B1, sprayed at 500 μM, 2 DAA p.m. (14:00-19:50), read-out: % WU 2 DAA PM
[7] = 60 h, Table B1, sprayed at 500 μM, cumulative total WU (0-2.5 DAA), read-out: % WU Total 0 to 2.5 DAA

| SMILES | change in vivo at 500 µM [1, 2] [%] | change in vivo at 500 µM [1, 3] [%] | change in vivo at 500 µM [1, 4] [%] | change in vivo at 500 µM [1, 5] [%] | change in vivo at 500 µM [1, 6] [%] | change in vivo at 500 µM [1, 7] [%] | melting point [°C] | further results |
| --- | --- | --- | --- | --- | --- | --- | --- | --- |
| CCN1C(=O)CCc2cc(CNS(=O)(=O)c3ccc(F)cc3)ccc21 [Compound 2.009, N-[(1-ethyl-2-oxo-3,4-dihydroquinolin-6-yl)methyl]-4-fluoro-benzenesulfonamide] | -5.3 | -2 | -1.2 | -3.1 | -1 | -2.3 | 190 to 191 | – |
| CCCN1C(=O)CCc2cc(CNS(=O)(=O)c3ccccc3)ccc21 [Compound 3.001, N-[(2-oxo-1-propyl-3,4-dihydroquinolin-6-yl)methyl]benzenesulfonamide] | -15 | -9.9 | -6.7 | -7.2 | -5.8 | -8.8 | 159 to 161 | change in vivo at 31.25 µM ([1]; 24 h, Table B2, rate 31.25 uM, 1 DAA a.m., read-out: % WU 1DAA AM): -6.9%; change in vivo at 31.25 µM ([1]; 24 h, Table B2, rate 31.25 uM, 1 DAA p.m., read-out: % WU 1DAA PM): -5.4%; change in vivo at 125 µM ([1]; 24 h, Table B2, rate 125 uM, 1 DAA a.m., read-out: % WU 1DAA AM): -15.7%; change in vivo at 125 µM ([1]; 24 h, Table B2, rate 125 uM, 1 DAA p.m., read-out: % WU 1DAA PM): -15.3%; change in vivo at 500 µM ([1]; 24 h, Table B2, rate 500 uM, 1 DAA a.m., read-out: % WU 1DAA AM): -36.4%; change in vivo at 500 µM ([1]; 24 h, Table B2, rate 500 uM, 1 DAA p.m., read-out: % WU 1DAA PM): -33.3%; change in vivo at 31.25 µM ([1]; 48 h, Table B2, rate 31.25 uM, 2 DAA a.m., read-out: % WU 2 DAA AM): -5.8%; change in vivo at 31.25 µM ([1]; 48 h, Table B2, rate 31.25 uM, 2 DAA p.m., read-out: % WU 2 DAA PM): -2.2%; change in vivo at 125 µM ([1]; 48 h, Table B2, rate 125 uM, 2 DAA a.m., read-out: % WU 2 DAA AM): -9.3%; change in vivo at 125 µM ([1]; 48 h, Table B2, rate 125 uM, 2 DAA p.m., read-out: % WU 2 DAA PM): -6.3%; change in vivo at 500 µM ([1]; 48 h, Table B2, rate 500 uM, 2 DAA a.m., read-out: % WU 2 DAA AM): -21.4%; change in vivo at 500 µM ([1]; 48 h, Table B2, rate 500 uM, 2 DAA p.m., read-out: % WU 2 DAA PM): -15.1%; change in vivo at 31.25 µM ([1]; 60 h, Table B2, rate 31.25 uM, cumulative total WU (0-2.5 DAA), read-out: % WU Total 0 to 2.5 DAA): -5.7%; change in vivo at 125 µM ([1]; 60 h, Table B2, rate 125 uM, cumulative total WU (0-2.5 DAA), read-out: % WU Total 0 to 2.5 DAA): -14.8%; change in vivo at 500 µM ([1]; 60 h, Table B2, rate 500 uM, cumulative total WU (0-2.5 DAA), read-out: % WU Total 0 to 2.5 DAA): -31.1%; % WU 0 DAA AM* ([1]; Table B2, rate 31.25 uM): −4.4%; % WU 0 DAA AM* ([1]; Table B2, rate 125 uM): −23.7%; % WU 0 DAA AM* ([1]; Table B2, rate 500 uM): −44.6% |
| CCN1C(=O)CCc2cc(CNS(=O)(=O)c3ccc(C)cc3C)ccc21 [Compound 2.014, N-[(1-ethyl-2-oxo-3,4-dihydroquinolin-6-yl)methyl]-2,4-dimethyl-benzenesulfonamide] | -2.8 | -0.2 | -0.9 | -0.9 | -1.7 | -1.1 | 199 to 200 | – |
| CCCN1C(=O)CCc2cc(CNS(=O)(=O)c3cccc4ccccc34)ccc21 [Compound 3.074, N-[(2-oxo-1-propyl-3,4-dihydroquinolin-6-yl)methyl]naphthalene-1-sulfonamide] | -8.6 | 0 | 1 | -1.5 | 0 | -1.4 | 176 to 179 | – |
| CCN1C(=O)CCc2cc(CNS(=O)(=O)c3ccccc3F)ccc21 [Compound 2.007, N-[(1-ethyl-2-oxo-3,4-dihydroquinolin-6-yl)methyl]-2-fluoro-benzenesulfonamide] | -14.1 | -7.3 | -6.6 | -8.8 | -5.7 | -8.1 | 155 to 163 | – |
